Measured values published in the NIST ThermoML archive (doi:10.1021/je1011604).

Assays:
[1] = 101.33 kPa, Liquid, Pycnometric method
[2] = xn = mol fraction of the nth substance listed; conditions: 101 kPa, Liquid, Capillary tube (Ostwald / Ubbelohde) method

CCC(C)=O [butanone]
[1]
Conditions | mass density [kg/m3]
303.15 K | 794.6
313.15 K | 784
323.15 K | 773.3

c1ccccc1 [benzene] + CCC(C)=O
[2], x2 = 0
Conditions | viscosity [mPa·s]
303.15 K | 0.564
313.15 K | 0.498
323.15 K | 0.442

CCC(C)=O [butanone] + c1ccccc1
viscosity [mPa·s], [2]
Conditions | x1 = 0.101 | x1 = 0.1999 | x1 = 0.2988 | x1 = 0.3969 | x1 = 0.4996 | x1 = 0.5988 | x1 = 0.6993 | x1 = 0.7931 | x1 = 0.8961 | x1 = 1
303.15 K | 0.534 | 0.508 | 0.478 | 0.452 | 0.432 | 0.417 | 0.401 | 0.389 | 0.376 | 0.367
313.15 K | 0.473 | 0.448 | 0.427 | 0.409 | 0.393 | 0.378 | 0.367 | 0.355 | 0.345 | 0.334
323.15 K | 0.422 | 0.403 | 0.384 | 0.369 | 0.354 | 0.343 | 0.333 | 0.324 | 0.316 | 0.306

c1ccccc1 [benzene]
[1]
Conditions | mass density [kg/m3]
303.15 K | 868.1
313.15 K | 857.4
323.15 K | 846.6
